Assay: Retention of absorbance at 415 nm after heat development, Examples 3 and 4
Settings: A/B×100 (after/before heat development), development 24 seconds, grain size 0.12 μm, Example 3
Protocol: (§1) Each sample was thermally developed with Fuji Medical Dry Laser Imager FM-DPL Model in which the temperatures of four panel heaters were set at 112° C., 118° C., 120° C. and 120° C., respectively and which the overall development time was set at 24 seconds.
Using a spectral photometer U-4100 (manufactured by Hitachi) equipped with an integrating sphere, the spectral absorbance of each sample was measured. The change rate of the absorbance at 415 nm of each sample before heat development and that after heat development was measured. Apart from the above samples, silver iodide-free sample was prepared, and the absorbance thereof at 415 nm was used as a base standard. The retention of absorbance of each sample was computed according to the formula mentioned below. The smaller the retention, the larger the reduction in absorption, which is preferable.
Retention of Absorbance (%)=A/B×100
(§2) A=(absorbance of a sample after heat development)−(absorbance of a silver iodide-free sample after heat development)
(§3) B=(absorbance of the sample before heat development)−(absorbance of a silver iodide-free sample before heat development)

Which “Silver Iodide Absorption Retention (%)” value does the source give for `CC(C)c1ccc2cnncc2c1` [6-isopropylphthalazine] here?
The value was “more effective than phthalazine”.

Which “Silver Iodide Absorption Retention (%)” value does the source give for `c1ccc2cnncc2c1` [phthalazine, Phthalazine] here?
The value was “effective for reducing the absorption intensity”.

Assay: not given
Settings: Hammett's substituent constants of Y11 to Y14; constants from Chemical Review, 1991, Vol. 91; cited from earlier work

With `CCC(C)c1ccc2cn[nH]c(=O)c2c1` (stereo not shown) [Sample I-24] as the compound, how does the “Total Sum of σ p” value read?
Its value is −0.12.

For `CCN(CC)c1ccc2c(=O)[nH]ncc2c1` [Sample I-59], which “Total Sum of σ p” value is on record?
The value was −0.72.

With `Cc1ccc2c(=O)[nH]ncc2c1C` [Sample I-19] as the compound, how does the “Total Sum of σ p” value read?
Its value is −0.34.

For `CCCCc1ccc2c(=O)[nH]ncc2c1` [Sample I-14], which “Total Sum of σ p” value is on record?
Its value is −0.16.

With `CCOc1cccc2cn[nH]c(=O)c12` [Sample I-33] as the compound, how does the “Total Sum of σ p” value read?
The value was −0.24.

Which “Total Sum of σ p” value does the source give for `COc1cccc2cn[nH]c(=O)c12` [Sample I-29] here?
The value was −0.27.

Which “Total Sum of σ p” value does the source give for `CCCOc1ccc2c(=O)[nH]ncc2c1` [Sample I-35] here?
The value was −0.32.

Which “Total Sum of σ p” value does the source give for `CC(C)c1ccc2cn[nH]c(=O)c2c1` [Sample I-22] here?
Its value is −0.15.

Which “Total Sum of σ p” value does the source give for `CCc1ccc2c(=O)[nH]ncc2c1` [Sample I-6] here?
Its value is −0.15.

For `O=c1[nH]ncc2cc(Oc3ccccc3)ccc12` [Sample I-47], which “Total Sum of σ p” value is on record?
Its value is −0.03.

Which “Total Sum of σ p” value does the source give for `CCCOc1cccc2c(=O)[nH]ncc12` [Sample I-34] here?
Its value is −0.32.

Which “Total Sum of σ p” value does the source give for `Nc1ccc2c(=O)[nH]ncc2c1` [Sample I-60] here?
The value was −0.66.

For `O=c1[nH]ncc2ccc(Oc3ccccc3)cc12` [Sample I-48], which “Total Sum of σ p” value is on record?
The value was −0.03.

For `CCCCc1ccc2cn[nH]c(=O)c2c1` [Sample I-23], which “Total Sum of σ p” value is on record?
Its value is −0.16.

Which “Total Sum of σ p” value does the source give for `CC(=O)Oc1ccc2cn[nH]c(=O)c2c1` [Sample I-69] here?
Its value is 0.31.

Which “Total Sum of σ p” value does the source give for `CC(C)Cc1ccc2c(=O)[nH]ncc2c1` [Sample I-16] here?
Its value is −0.12.

Which “Total Sum of σ p” value does the source give for `O=c1[nH]ncc2cc(-c3ccccc3)ccc12` [Sample I-15] here?
Its value is −0.01.

Which “Total Sum of σ p” value does the source give for `CC(C)Cc1ccc2cn[nH]c(=O)c2c1` [Sample I-25] here?
The value was −0.12.

Which “Total Sum of σ p” value does the source give for `COc1cccc2c(=O)[nH]ncc12` [Sample I-26] here?
The value was −0.27.

With `COc1cc2c(=O)[nH]ncc2c(OC)c1OC` [Sample I-42] as the compound, how does the “Total Sum of σ p” value read?
The value was −0.81.

Which “Total Sum of σ p” value does the source give for `CCOc1ccc2cn[nH]c(=O)c2c1` [Sample I-32] here?
The value was −0.24.

With `CCOc1cccc2c(=O)[nH]ncc12` [Sample I-30] as the compound, how does the “Total Sum of σ p” value read?
Its value is −0.24.

With `CCc1cccc2c(=O)[nH]ncc12` [Sample I-5] as the compound, how does the “Total Sum of σ p” value read?
Its value is −0.15.

Which “Total Sum of σ p” value does the source give for `CCCc1ccc2cn[nH]c(=O)c2c1` [Sample I-11] here?
The value was −0.13.

With `CC(C)Oc1ccc2c(=O)[nH]ncc2c1` [Sample I-38] as the compound, how does the “Total Sum of σ p” value read?
The value was −0.33.

With `CCCc1cccc2cn[nH]c(=O)c12` [Sample I-12] as the compound, how does the “Total Sum of σ p” value read?
The value was −0.13.

Which “Total Sum of σ p” value does the source give for `CCCc1ccc2c(=O)[nH]ncc2c1` [Sample I-9] here?
Its value is −0.13.

For `CN(C)c1ccc2cn[nH]c(=O)c2c1` [Sample I-74], which “Total Sum of σ p” value is on record?
Its value is −0.83.

Which “Total Sum of σ p” value does the source give for `O=c1[nH]ncc2cc(NS(=O)(=O)c3ccccc3)ccc12` [Sample I-65] here?
Its value is 0.01.

For `CCCOc1ccc2cn[nH]c(=O)c2c1` [Sample I-36], which “Total Sum of σ p” value is on record?
Its value is −0.32.

With `Cc1cccc2cn[nH]c(=O)c12` [Sample I-4] as the compound, how does the “Total Sum of σ p” value read?
Its value is −0.17.

Which “Total Sum of σ p” value does the source give for `CCc1ccc2cn[nH]c(=O)c2c1` [Sample I-7] here?
Its value is −0.15.

For `Cc1cc2cn[nH]c(=O)c2cc1C` [Sample I-18], which “Total Sum of σ p” value is on record?
The value was −0.34.

For `Cc1ccc2c(=O)[nH]ncc2c1` [Sample I-2], which “Total Sum of σ p” value is on record?
The value was −0.17.

For `COc1ccc2cn[nH]c(=O)c2c1` [Sample I-28], which “Total Sum of σ p” value is on record?
The value was −0.27.

With `O=C(Nc1ccc2c(=O)[nH]ncc2c1)c1ccccc1` [Sample I-62] as the compound, how does the “Total Sum of σ p” value read?
Its value is −0.19.

Which “Total Sum of σ p” value does the source give for `CCc1cccc2cn[nH]c(=O)c12` [Sample I-8] here?
The value was −0.15.

Which “Total Sum of σ p” value does the source give for `CCCOc1cccc2cn[nH]c(=O)c12` [Sample I-37] here?
Its value is −0.32.

Which “Total Sum of σ p” value does the source give for `CCc1cc2cn[nH]c(=O)c2cc1C` [Sample I-21] here?
Its value is −0.32.

For `Cc1ccc2cn[nH]c(=O)c2c1` [Sample I-3], which “Total Sum of σ p” value is on record?
The value was −0.17.

With `CCOc1ccc2c(=O)[nH]ncc2c1` [Sample I-31] as the compound, how does the “Total Sum of σ p” value read?
The value was −0.24.

With `Cc1cc2c(=O)[nH]ncc2c(C)c1C` [Sample I-20] as the compound, how does the “Total Sum of σ p” value read?
Its value is −0.51.

For `CCCCOc1ccc2c(=O)[nH]ncc2c1` [Sample I-39], which “Total Sum of σ p” value is on record?
Its value is −0.34.

For `CCCc1cccc2c(=O)[nH]ncc12` [Sample I-10], which “Total Sum of σ p” value is on record?
The value was −0.13.

For `Cc1cccc2c(=O)[nH]ncc12` [Sample I-1], which “Total Sum of σ p” value is on record?
Its value is −0.17.

Which “Total Sum of σ p” value does the source give for `COc1ccc2c(=O)[nH]ncc2c1OC` [Sample I-41] here?
Its value is −0.54.

Which “Total Sum of σ p” value does the source give for `COc1ccc2c(=O)[nH]ncc2c1` [Sample I-27] here?
The value was −0.27.

With `CC(=O)Nc1ccc2c(=O)[nH]ncc2c1` [Sample I-61] as the compound, how does the “Total Sum of σ p” value read?
The value was 0.00.

For `CC(C)(C)c1ccc2c(=O)[nH]ncc2c1` [Sample I-17], which “Total Sum of σ p” value is on record?
Its value is −0.20.

With `COc1cc2cn[nH]c(=O)c2cc1OC` [Sample I-40] as the compound, how does the “Total Sum of σ p” value read?
Its value is −0.54.

Which “Total Sum of σ p” value does the source give for `CC(C)c1ccc2c(=O)[nH]ncc2c1` [Sample I-13] here?
The value was −0.15.

Assay: Difference between light absorption intensity before and after heat development (absorbance at 415 nm), Examples 1 and 2
Settings: A/B×100 (after/before heat development, silver iodide-free sample as base), development 24 seconds, Example 1
Protocol: as §1
Using a spectral photometer U-4100 (manufactured by Hitachi) equipped with an integrating sphere, the spectral absorbance of each sample was measured. […] The change rate of the absorbance at 415 nm of each of samples 11 to 20 before heat development and that after heat development was measured. Apart from the above samples, silver iodide-free sample was prepared, and the absorbance thereof at 415 nm was used as a base standard. The absorbance reduction rate of each sample was computed according to the formula mentioned below.
Absorbance reduction rate (%)=A/B×100
as §2, §3

Which “Absorbance Change Rate (%)” value does the source give for `CC(C)c1ccc2cnncc2c1` [6-isopropylphthalazine] here?
The value was “may lower the absorption intensity”.

Assay: Measurement of acid dissociation constant pKa by potentiometric titration
Type: physicochemical
Settings: compound of formula (1) or (2); tetrahydrofuran/water (3/2), 25° C.; Table 2
Protocol: Using an automatic potentiometric titration meter, Kyoto Electronic Industry's AT-420, the acid dissociation constant (pKa) of the conjugate acid of the compound of formula (1) in a mixed solution of tetrahydrofuran and water (3/2) was measured at 25° C.
Using an automatic potentiometric titration meter, Kyoto Electronic Industry's AT-420, the acid dissociation constant (pKa) of the conjugate acid of the silver iodide complex-forming agent in a mixed solution of tetrahydrofuran and water (3/2) was measured at 25° C.

For `O=C(Nc1ccncc1)c1ccccc1` [Sample F-325], which “pKa of Conjugate Acid” value is on record?
Its value is 4.2.

With `c1ccc(-c2ccnnc2)cc1` [Sample F-405] as the compound, how does the “pKa of Conjugate Acid” value read?
Its value is 3.6.

Which “pKa of Conjugate Acid” value does the source give for `Cc1nnc(C)c(C)c1C` [Sample F-404] here?
Its value is 5.4.

Same assay, conditions: conjugate acid of the silver iodide complex-forming agent; tetrahydrofuran/water (3/2), 25° C.; Table 5

For `O=C(Nc1ccncc1)c1ccccc1` [Sample F-325], which pKa is on record?
Its pKa is 4.2.

Which pKa does the source give for `c1ccc(-c2ccnnc2)cc1` [Sample F-405] here?
The pKa was 3.6.

For `Cc1nnc(C)c(C)c1C` [Sample F-404], which pKa is on record?
The pKa was 5.4.

Same assay, conditions: conjugate acid of the silver iodide complex-forming agent; tetrahydrofuran/water (3/2), 25° C.; Table 6

Which pKa does the source give for `O=C(Nc1ccncc1)c1ccccc1` [Sample F-325] here?
The pKa was 4.2.

Same assay, conditions: conjugate acid of the silver iodide complex-forming agent; tetrahydrofuran/water (3/2), 25° C.; Table 8

Which pKa does the source give for `O=C(Nc1ccncc1)c1ccccc1` [Sample F-325] here?
The pKa was 4.2.

Which pKa does the source give for `c1ccc(-c2ccnnc2)cc1` [Sample F-405] here?
The pKa was 3.6.

For `Cc1nnc(C)c(C)c1C` [Sample F-404], which pKa is on record?
Its pKa is 5.4.

Same assay, conditions: conjugate acid; tetrahydrofuran/water (3/2), 25° C.; Table 1

For `O=C(Nc1ccncc1)c1ccccc1` [Sample F-325], which “Compound of Formula (1) or (2) pKa” value is on record?
The value was 4.2.

Same assay, conditions: conjugate acid; tetrahydrofuran/water (3/2), 25° C.; Table 3

Which “Silver Iodide Complex-forming Agent pKa” value does the source give for `O=C(Nc1ccncc1)c1ccccc1` [Sample F-325] here?
Its value is 4.2.

Same assay, conditions: tetrahydrofuran/water (3/2) mixed solution, compound of formula (1) or (2), 25° C., Table 2, read-out: pKa of Conjugate Acid

Which pKa does the source give for `c1cc2cnncc2s1` [Sample F-421] here?
Its pKa is 4.2.
